Results reported in article PMC3701070 (PLoS ONE, 2013).

Experiments:
[1] = target: T1, LIMK1 (h) (Homo sapiens, UniProt P53667); assay: Kinase panel (Millipore) enzyme activity; assay type: biochemical
T1 construct: purchased Millipore
Description: (PDF) Click here for additional data file.

[2] = target: ALK5 (h) (Homo sapiens, UniProt P36897); assay: ALK5 binding assay
[3] = system: pERK in A375P (BRAF^V600E) cells; assay: Western blot, pERK in A375P cells; assay type: cell-based; details: Homo sapiens, 8 nM, 1 h
Description: Cells were lysed in 25 mM Tris-HCl pH 7.5, 2 mM EDTA, 2 mM EGTA, 1% Triton X-100, 0.1% SDS, 50 mM sodium-β-glycerophosphate, 2 mM Na3VO4, 12.5 mM sodium pyrophosphate, 2× Complete EDTA-free mini protease inhibitor tablets (Roche), 2× phosphatase inhibitor cocktails I and II (Sigma-Aldrich). Protein concentrations were determined by Bio-Rad DC™ or dye-based protein assays and lysates were resolved by SDS-PAGE (Invitrogen NuPAGE®) and transferred to PVDF membranes. Membranes were blocked with Odyssey® (LI-COR Biosciences) blocking buffer and incubated with primary antibodies overnight at 4°C. Blots were washed with PBS containing 0.1% Tween-20, incubated with secondary antibodies, and washed again prior to signal detection on a LI-COR Odyssey® reader.
siRNA complexes were prepared per the manufacturer's instructions using Dharmacon RNAi duplex (Thermo Fisher Scientific), Lipofectamine™ RNAiMAX™ (Invitrogen), and Opti-MEM® (Gibco) and allowed to form at room temperature for at least 40 min. Volumes of 1 mL of RNAi complex were added to each well of a plate with 150 000 cells in complete medium (no antibiotic) and incubated at 37°C, 5% CO2 for the indicated times.
Lysates were immunoblotted for the proteins indicated.

[4] = system: A375P cells; assay: Cell cycle analysis; assay type: cell-based, human; details: A375P (BRAF^V600E), 72-hour exposure
Description: (§1) Cells were permeabilized, DNA was stained with propidium iodide, and samples were read on a BD LSRII flow cytometer. Data were analyzed using the cell cycle platform of FlowJo v6.1.1 software.
(§2) Cell cycle phases are shown in stacked format as a percentage of the total population. […] (PPTX) Click here for additional data file.

[5] = system: SK-MEL-28 cells; assay: Cell cycle analysis; assay type: cell-based, human; details: SK-MEL-28 (BRAF^V600E), 72-hour exposure
Description: as §1, §2

[6] = system: A375P cells; assay: Caspase-3/7 activation; assay type: cell-based, human; details: A375P (BRAF^V600E)
Description: (§3) At selected times, caspase-3/7 activity and cell density were determined using Caspase-Glo® (Promega) and CellTiter-Glo® reagents, respectively, using a PerkinElmer EnVision™ reader. Caspase activity was normalized to cell density and percent induction over the DMSO control was determined.
as §2

[7] = system: SK-MEL-28 cells; assay: Caspase-3/7 activation; assay type: cell-based, human; details: SK-MEL-28 (BRAF^V600E)
Description: as §3, §2

T1 sequence (P53667 whole entry): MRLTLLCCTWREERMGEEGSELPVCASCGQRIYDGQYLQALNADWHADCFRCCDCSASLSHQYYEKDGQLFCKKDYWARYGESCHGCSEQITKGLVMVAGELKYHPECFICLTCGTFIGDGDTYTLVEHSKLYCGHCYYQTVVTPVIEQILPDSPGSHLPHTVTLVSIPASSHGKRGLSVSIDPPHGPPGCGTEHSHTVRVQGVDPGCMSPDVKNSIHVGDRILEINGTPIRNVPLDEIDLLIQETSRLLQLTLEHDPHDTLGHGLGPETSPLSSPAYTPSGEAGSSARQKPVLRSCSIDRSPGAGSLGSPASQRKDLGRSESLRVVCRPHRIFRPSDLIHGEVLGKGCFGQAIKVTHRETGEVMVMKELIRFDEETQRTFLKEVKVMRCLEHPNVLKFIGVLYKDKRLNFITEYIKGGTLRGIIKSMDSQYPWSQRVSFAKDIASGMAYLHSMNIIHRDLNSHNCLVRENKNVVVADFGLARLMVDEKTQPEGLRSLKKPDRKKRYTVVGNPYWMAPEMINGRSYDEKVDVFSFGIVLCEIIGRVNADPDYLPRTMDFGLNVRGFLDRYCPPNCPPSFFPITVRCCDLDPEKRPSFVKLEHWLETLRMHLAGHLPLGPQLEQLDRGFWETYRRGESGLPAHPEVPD
Sequence of ALK5 (h) (P36897 34-503): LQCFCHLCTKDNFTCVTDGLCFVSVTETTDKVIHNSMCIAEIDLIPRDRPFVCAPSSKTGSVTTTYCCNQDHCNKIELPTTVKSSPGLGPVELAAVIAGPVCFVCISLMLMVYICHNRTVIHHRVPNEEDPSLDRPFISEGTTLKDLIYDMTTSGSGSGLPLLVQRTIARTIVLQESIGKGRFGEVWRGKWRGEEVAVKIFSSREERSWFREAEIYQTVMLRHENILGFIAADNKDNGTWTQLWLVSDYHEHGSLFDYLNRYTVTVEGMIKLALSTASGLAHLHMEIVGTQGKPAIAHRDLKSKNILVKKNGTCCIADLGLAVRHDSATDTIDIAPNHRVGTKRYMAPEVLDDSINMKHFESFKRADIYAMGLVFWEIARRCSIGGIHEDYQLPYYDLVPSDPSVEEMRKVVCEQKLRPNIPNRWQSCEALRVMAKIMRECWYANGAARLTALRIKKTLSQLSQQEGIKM

CC(C)(C)c1nc(-c2cccc(NS(=O)(=O)c3c(F)cccc3F)c2F)c(-c2ccnc(N)n2)s1 [dabrafenib]
IC50 [1]: 15 nM | IC50 [2]: 11 nM | inhibition at 0.008 µM [3]: > 90% | effect on cell cycle [4]: arrested the BRAF^V600E cells at the G1 (2n DNA) phase of the cell cycle | effect on cell cycle [5]: arrested the BRAF^V600E cells at the G1 (2n DNA) phase of the cell cycle | caspase-3/7 activation and apoptosis [6]: induced caspase-3/7 activation and apoptosis | caspase-3/7 activation and apoptosis [7]: induced caspase-3/7 activation and apoptosis
